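GI50 marks 50% less growth. TGI: total growth inhibition.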
Columns and labels:
Assay in all cases: DTP human tumour cell line panel, 384-well format
MDA-MB-468 breast = tested on: MDA-MB-468 breast
OVCAR-4 ovarian = tested on: OVCAR-4 ovarian
SNB-75 CNS = tested on: SNB-75 CNS
SK-MEL-5 melanoma = tested on: SK-MEL-5 melanoma
NCI-H522 lung = tested on: NCI-H522 lung
SF-539 CNS = tested on: SF-539 CNS
MCF7 breast = tested on: MCF7 breast
NCI-H23 lung = tested on: NCI-H23 lung
OVCAR-3 ovarian = tested on: OVCAR-3 ovarian
LOX IMVI melanoma = tested on: LOX IMVI melanoma
U251 glioblastoma = tested on: U251 glioblastoma
SNB-19 CNS = tested on: SNB-19 CNS
NCI-H322M lung = tested on: NCI-H322M lung
HCC-2998 colon = tested on: HCC-2998 colon
A498 renal = tested on: A498 renal
SF-268 CNS = tested on: SF-268 CNS
NCI/ADR-RES ovarian = tested on: NCI/ADR-RES ovarian
T-47D breast = tested on: T-47D breast
MOLT-4 leukemia = tested on: MOLT-4 leukemia
NCI-H226 lung = tested on: NCI-H226 lung
SF-295 CNS = tested on: SF-295 CNS
MDA-MB-231 breast = tested on: MDA-MB-231 breast
UACC-257 melanoma = tested on: UACC-257 melanoma
NCI-H460 NSCLC = tested on: NCI-H460 NSCLC
OVCAR-5 ovarian = tested on: OVCAR-5 ovarian
OVCAR-8 ovarian = tested on: OVCAR-8 ovarian
HOP-62 NSCLC = tested on: HOP-62 NSCLC
SK-MEL-28 melanoma = tested on: SK-MEL-28 melanoma
M14 melanoma = tested on: M14 melanoma
A549 NSCLC = tested on: A549 NSCLC
KM12 colon = tested on: KM12 colon
TK-10 renal = tested on: TK-10 renal
SN12C renal = tested on: SN12C renal
HCT-15 colon = tested on: HCT-15 colon
BT-549 breast = tested on: BT-549 breast
HCT-116 colon = tested on: HCT-116 colon
MDA-MB-435 melanoma = tested on: MDA-MB-435 melanoma
MALME-3M melanoma = tested on: MALME-3M melanoma
PC-3 prostate = tested on: PC-3 prostate
HOP-92 NSCLC = tested on: HOP-92 NSCLC
HL-60(TB) leukemia = tested on: HL-60(TB) leukemia
UACC-62 melanoma = tested on: UACC-62 melanoma
HT29 colon = tested on: HT29 colon
CAKI-1 renal = tested on: CAKI-1 renal
DU-145 prostate = tested on: DU-145 prostate
EKVX NSCLC = tested on: EKVX NSCLC
SR leukemia = tested on: SR leukemia
IGROV1 ovarian = tested on: IGROV1 ovarian
ACHN renal = tested on: ACHN renal
RXF 393 renal = tested on: RXF 393 renal
RPMI-8226 leukemia = tested on: RPMI-8226 leukemia
COLO 205 colon = tested on: COLO 205 colon
SK-OV-3 ovarian = tested on: SK-OV-3 ovarian
HS 578T breast = tested on: HS 578T breast
UO-31 renal = tested on: UO-31 renal
786-0 renal = tested on: 786-0 renal
K-562 leukemia = tested on: K-562 leukemia

NC(=O)c1cnc(N[C@@H]2CCCC[C@@H]2N)nc1Nc1cccc(-n2nccn2)c1
GI50 (MDA-MB-468 breast): 1.44 µM | TGI (MDA-MB-468 breast): 2.81 µM | GI50 (OVCAR-4 ovarian): 0.236 µM | TGI (OVCAR-4 ovarian): 1.98 µM | GI50 (SNB-75 CNS): 1.41 µM | TGI (SNB-75 CNS): 3.23 µM | GI50 (SK-MEL-5 melanoma): 0.145 µM | TGI (SK-MEL-5 melanoma): 1.13 µM | GI50 (NCI-H522 lung): 0.274 µM | TGI (NCI-H522 lung): 1.59 µM | GI50 (SF-539 CNS): 1.29 µM | TGI (SF-539 CNS): 2.59 µM | GI50 (MCF7 breast): 0.225 µM | TGI (MCF7 breast): 1.77 µM | GI50 (NCI-H23 lung): 0.801 µM | TGI (NCI-H23 lung): 2.15 µM | GI50 (OVCAR-3 ovarian): 1.02 µM | TGI (OVCAR-3 ovarian): 2.3 µM | GI50 (LOX IMVI melanoma): 0.372 µM | TGI (LOX IMVI melanoma): 1.45 µM | GI50 (U251 glioblastoma): 1.39 µM | TGI (U251 glioblastoma): 2.75 µM | GI50 (SNB-19 CNS): 1.31 µM | TGI (SNB-19 CNS): 4 µM | GI50 (NCI-H322M lung): 1.13 µM | TGI (NCI-H322M lung): 2.43 µM | GI50 (HCC-2998 colon): 0.415 µM | TGI (HCC-2998 colon): 1.85 µM | GI50 (A498 renal): 1.04 µM | TGI (A498 renal): 2.26 µM | GI50 (SF-268 CNS): 1.56 µM | TGI (SF-268 CNS): 3.11 µM | GI50 (NCI/ADR-RES ovarian): 9.3 µM | TGI (NCI/ADR-RES ovarian): 21.5 µM | GI50 (T-47D breast): 1.41 µM | TGI (T-47D breast): 2.78 µM | GI50 (MOLT-4 leukemia): 1.14 µM | TGI (MOLT-4 leukemia): 2.37 µM | GI50 (NCI-H226 lung): 1.21 µM | TGI (NCI-H226 lung): 2.51 µM | GI50 (SF-295 CNS): 1.65 µM | TGI (SF-295 CNS): 3.06 µM | GI50 (MDA-MB-231 breast): 1.15 µM | TGI (MDA-MB-231 breast): 3.77 µM | GI50 (UACC-257 melanoma): 1.1 µM | TGI (UACC-257 melanoma): 2.3 µM | GI50 (NCI-H460 NSCLC): 1.41 µM | TGI (NCI-H460 NSCLC): 2.77 µM | GI50 (OVCAR-5 ovarian): 0.769 µM | TGI (OVCAR-5 ovarian): 2.34 µM | GI50 (OVCAR-8 ovarian): 1.14 µM | TGI (OVCAR-8 ovarian): 2.41 µM | GI50 (HOP-62 NSCLC): 0.462 µM | TGI (HOP-62 NSCLC): 2.06 µM | GI50 (SK-MEL-28 melanoma): 1.38 µM | TGI (SK-MEL-28 melanoma): 2.69 µM | GI50 (M14 melanoma): 0.714 µM | TGI (M14 melanoma): 2.03 µM | GI50 (A549 NSCLC): 1.31 µM | TGI (A549 NSCLC): 2.7 µM | GI50 (KM12 colon): 0.41 µM | TGI (KM12 colon): 1.69 µM | GI50 (TK-10 renal): 0.438 µM | TGI (TK-10 renal): 1.84 µM | GI50 (SN12C renal): 0.178 µM | TGI (SN12C renal): 1.63 µM | GI50 (HCT-15 colon): 1.23 µM | TGI (HCT-15 colon): 2.61 µM | GI50 (BT-549 breast): 0.848 µM | TGI (BT-549 breast): 2.11 µM | GI50 (HCT-116 colon): 1.03 µM | TGI (HCT-116 colon): 2.32 µM | GI50 (MDA-MB-435 melanoma): 0.571 µM | TGI (MDA-MB-435 melanoma): 1.92 µM | GI50 (MALME-3M melanoma): 1.23 µM | TGI (MALME-3M melanoma): 2.49 µM | GI50 (PC-3 prostate): 0.617 µM | TGI (PC-3 prostate): 2.43 µM | GI50 (HOP-92 NSCLC): 1.27 µM | TGI (HOP-92 NSCLC): 2.98 µM | GI50 (HL-60(TB) leukemia): 0.0126 µM | TGI (HL-60(TB) leukemia): 0.153 µM | GI50 (UACC-62 melanoma): 0.305 µM | TGI (UACC-62 melanoma): 1.81 µM | GI50 (HT29 colon): 0.502 µM | TGI (HT29 colon): 1.98 µM | GI50 (CAKI-1 renal): 0.473 µM | TGI (CAKI-1 renal): 1.83 µM | GI50 (DU-145 prostate): 1.25 µM | TGI (DU-145 prostate): 2.98 µM | GI50 (EKVX NSCLC): 1.42 µM | TGI (EKVX NSCLC): 2.92 µM | GI50 (SR leukemia): 0.183 µM | TGI (SR leukemia): 1.47 µM | GI50 (IGROV1 ovarian): 0.631 µM | TGI (IGROV1 ovarian): 2.29 µM | GI50 (ACHN renal): 1.28 µM | TGI (ACHN renal): 2.57 µM | GI50 (RXF 393 renal): 1.51 µM | TGI (RXF 393 renal): 2.91 µM | GI50 (RPMI-8226 leukemia): 0.227 µM | TGI (RPMI-8226 leukemia): 1.35 µM | GI50 (COLO 205 colon): 0.761 µM | TGI (COLO 205 colon): 2.06 µM | GI50 (SK-OV-3 ovarian): 0.623 µM | TGI (SK-OV-3 ovarian): 2.82 µM | GI50 (HS 578T breast): 1.08 µM | TGI (HS 578T breast): 2.32 µM

Cc1c(C#N)cccc1-c1cc(-c2cn(Cc3cccc(C(C)(C)O)n3)nn2)nc(N)n1
GI50 (MDA-MB-468 breast): 0.368 µM | TGI (MDA-MB-468 breast): 28.7 µM | GI50 (SNB-75 CNS): 53.2 µM | TGI (SNB-75 CNS): > 100 µM | GI50 (NCI-H522 lung): 18.3 µM | TGI (NCI-H522 lung): 62.4 µM | GI50 (NCI/ADR-RES ovarian): 17.5 µM | TGI (NCI/ADR-RES ovarian): 44.5 µM | GI50 (T-47D breast): 15.2 µM | TGI (T-47D breast): 50.9 µM | GI50 (SF-295 CNS): 25.6 µM | TGI (SF-295 CNS): 95.8 µM | GI50 (MDA-MB-231 breast): 30.5 µM | TGI (MDA-MB-231 breast): > 100 µM | GI50 (UO-31 renal): 19 µM | TGI (UO-31 renal): 62.5 µM | GI50 (UACC-257 melanoma): 25.7 µM | TGI (UACC-257 melanoma): 79 µM | GI50 (M14 melanoma): 57.8 µM | TGI (M14 melanoma): > 100 µM | GI50 (KM12 colon): 0.334 µM | TGI (KM12 colon): > 100 µM | GI50 (TK-10 renal): 24 µM | TGI (TK-10 renal): 96.3 µM | GI50 ([…]-0 renal): 38.2 µM | TGI (786-0 renal): > 100 µM | GI50 (MDA-MB-435 melanoma): 36 µM | TGI (MDA-MB-435 melanoma): > 100 µM | GI50 (MALME-3M melanoma): 25.2 µM | TGI (MALME-3M melanoma): 96.4 µM | GI50 (PC-3 prostate): 29.9 µM | TGI (PC-3 prostate): > 100 µM | GI50 (HT29 colon): 41.1 µM | TGI (HT29 colon): > 100 µM | GI50 (EKVX NSCLC): 32.1 µM | TGI (EKVX NSCLC): > 100 µM | GI50 (RPMI-8226 leukemia): 14.9 µM | TGI (RPMI-8226 leukemia): 31.5 µM | GI50 (K-562 leukemia): 25.3 µM | TGI (K-562 leukemia): > 100 µM | GI50 (SK-OV-3 ovarian): 33.8 µM | TGI (SK-OV-3 ovarian): > 100 µM

From PubChem BioAssay (NCI)
